Experimental data: patent publication EP3102204B1 (The University Of Mississippi, priority 2014, dated 2015)
Where two headings read alike, the source gives them in different places.

Experiments:
[1] = system: σ-1 receptor; test: Cell uptake studies in transfected CHO cells; settings: at 120 min
Protocol: Control CHO cells (transfected with a vector not containing the σ-1 receptor gene - to serve as a negative control) and CHO cells transfected with a vector containing σ-1 receptor cDNA (to serve as a positive control for σ-1 receptor expression in cells) were used for the uptake assays. […] The incubated cells were subsequently washed, lysed and counted for radioactivity. All collected data were normalized for amount of protein present in each well.
Cells CHO cells were grown in Ham's F-12 medium. For uptake studies CHO cells were transfected using Lipofectamine 2000 (Invitrogen, Carlsbad, CA, USA) and either pcDNA (empty vector, negative control) or σ-1 receptor gene (OPRS1, accession number NM_005866.2, origin, Rockville, MD, USA) following manufacturer's directions. […] Twenty-four hours later, CHO cells were transfected with either 0.8 µg pcDNA (empty vector, control), or 0.8 µg sigma-1 DNA. […] A portion of each lysate (250 µL) was transferred to a glass tube and activity was measured with a Cobra II γ counter (Packard-Perkin Elmer, Waltham, MA, USA). Protein content from each well was measured by Bradford assay. The same protocol was followed for (+)-[^3H]pentazocine, except the activity was measured with a liquid scintillation counter (Beckman Coulter LS 6500, Brea, CA, USA).

[2] = in vitro; type: in vitro ADME, rat
Protocol: Metabolic stability of AZ_66 (1µM) was performed in Ammonium acetate buffer (50mM, pH 7.4) with Rat liver microsomes (0.5mg) at 37 °C in 0.5ml of incubation mixture. The incubation mixture composed of Ammonium acetate buffer (50mM, pH 7.4), Magnesium chloride (3mM), a NADPH regenerating system consisting of NADP (1mM), glucose-6-phosphate (5mM), and glucose-6-phosphate dehydrogenase (1Unit/mL). The Substrate and microsomes were pre incubated at 37°C for 5 min before starting the reaction. The reactions were started by the addition of regenerating system and carried out at 37°C in a shaking water bath for 60min. The incubations were stopped by adding an equal volume of ice cold acetonitrile at predetermined time points (0, 5, 15, 30, 60 min). The samples were centrifuged for 10min at 4°C and the supernatant was injected into UPLC/MS/MS. Control incubation without NADPH was also performed and these served as 100% value. All microsomal incubations were conducted using the same lot of microsomes.
In vitro half-life and CLint: The percent of the parent compound remaining is plotted versus time. The slope of the line gives the rate constant k for the disappearance of parent compound, from which an in vitro t1/2 can be calculated. CLint can be calculated using the following formula CLint = k(min^−1) × ([V](L))/([P](mg)) = (L/mg×min) [formula] […]

[3] = target: dopamine transporters; test: Non-σ competition binding assay, [3H]WIN35,428; settings: rat brain homogenates; read-out: DAT Ki
Protocol: (§1) Compounds were tested at various non-σ target sites to evaluate selectivity because cocaine interacts with these sites (dopamine, serotonin and norepinephrine transporters) or historic "sigma" ligands interact with them (opioid, NMDA, dopamine D2, 5-HT2 receptors). The compounds were tested in competition binding assays using rat brain homogenates as previously published. […] The results were reported as Ki in nM.

[4] = target: serotonin transporters; test: Non-σ competition binding assay, [3H]paroxetine; settings: rat brain homogenates; read-out: SERT Ki
Protocol: as §1

[5] = target: norepinephrine transporters; test: Non-σ competition binding assay, [3H]nisoxetine; settings: rat brain homogenates; read-out: NET Ki
Protocol: as §1

[6] = target: NMDA receptors; test: Non-σ competition binding assay, [3H]TCP; settings: rat brain homogenates
Protocol: as §1

[7] = target: T1, dopamine D2 receptors (Rattus norvegicus, UniProt P61169); test: Non-σ competition binding assay, [3H](-)-sulpiride; settings: rat brain homogenates
T1 construct: from tissue; host or cells: rat brain homogenate
T1 sequence (P61169 whole entry): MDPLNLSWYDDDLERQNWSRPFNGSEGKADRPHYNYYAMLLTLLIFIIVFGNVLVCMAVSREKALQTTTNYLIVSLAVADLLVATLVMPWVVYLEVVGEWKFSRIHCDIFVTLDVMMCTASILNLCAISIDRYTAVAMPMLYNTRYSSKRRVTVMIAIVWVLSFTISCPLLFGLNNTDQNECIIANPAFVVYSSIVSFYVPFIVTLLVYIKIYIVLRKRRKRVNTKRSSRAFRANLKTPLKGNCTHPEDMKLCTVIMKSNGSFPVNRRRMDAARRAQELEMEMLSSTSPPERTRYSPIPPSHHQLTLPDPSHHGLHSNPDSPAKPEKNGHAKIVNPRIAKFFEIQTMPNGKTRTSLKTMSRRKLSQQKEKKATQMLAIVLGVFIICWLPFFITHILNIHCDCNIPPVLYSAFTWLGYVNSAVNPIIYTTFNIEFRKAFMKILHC
Protocol: as §1

[8] = target: 5-HT2 receptors; test: Non-σ competition binding assay, [3H]ketanserin; settings: rat brain homogenates
Protocol: as §1

[9] = system: Male, Swiss Webster mice; test: Cocaine-induced convulsions; type: in vivo; settings: pretreatment i.p. 15 min before cocaine 70 mg/kg i.p.
[10] = system: Male, Swiss Webster mice; test: Cocaine-induced locomotor activity; type: in vivo; settings: pretreatment i.p. 15 min before cocaine 20 mg/kg i.p.
Protocol: Male, Swiss Webster mice were acclimated to the treatment room and then to the chambers of the automated activity monitoring system (San Diego Instruments, San Diego, CA). […] The total locomotor activity (ambulatory, fine and rearing movements) of the mice was recorded for the next 30 min as the number of disruptions made by them in the 16x16 photobeam grid of their testing chamber.

[11] = system: Male, Swiss Webster mice; test: Expression of cocaine-induced sensitization; type: in vivo; settings: compound on Day 15 before cocaine 10 mg/kg i.p.
Protocol: Male, Swiss Webster mice were acclimated as detailed above. For five consecutive days (Days 1-5), the mice were pretreated (i.p.) with saline, then challenged 15 min later with cocaine (10mg/kg, i.p.). The total locomotor activity (ambulatory, fine and rearing movements) of the mice was recorded for the next 30 min. A 10 day drug free period followed and on Day 15, the mice were administered saline (i.p.) or compound (0.1-20mg/kg), followed15 min later with cocaine (10mg/kg, i.p.). Locomotor activity was then recorded for the next 30 min.

[12] = system: Male, Swiss Webster mice; test: Methamphetamine-induced locomotor activity; type: in vivo; settings: pretreatment i.p. 15 min before methamphetamine 1 mg/kg i.p.
Protocol: (§2) Male, Swiss Webster mice were acclimated as detailed above. […] The total locomotor activity (ambulatory, fine and rearing movements) of the mice was recorded for the next 30 min as the number of disruptions made by them in the 16x16 photobeam grids surrounding their testing chambers.

[13] = system: Male, Swiss Webster mice; test: Methamphetamine-induced dopamine depletions; type: in vivo; settings: methamphetamine 5 mg/kg x 4 at 2 hr intervals; striatal dopamine one week later
Protocol: Male, Swiss Webster mice were injected (i.p.) with saline or compound (0-20mg/kg), followed 15 min later with either saline (- METH) or methamphetamine (5mg/kg) at 2hr intervals, a total of four times. Striatal dopamine levels were measured one week later.

[14] = pKa by potentiometric titration; type: physicochemical
Protocol: A solution of 0.01 M sodium hydroxide was prepared and the pH measured as 11.9. Similarly, 0.01 M hydrochloric acid solution was prepared and the pH measured as 2.07. […] To the same sample, 0.1 mL portions of hydrochloric acid were added and pH recorded until it became constant. A titration curve was then plotted as pH versus the volume of base/acid added.

[15] = target: σ-1 receptors; test: In vitro radioligand binding assays of CM304 at sigma receptors; parameters: species or system rat
Protocol: Competition binding assays were performed as previously described. Briefly, radioligands were used to tag the targeted sites under standard conditions.

[16] = in vitro; type: in vitro ADME; parameters: dose or concentration left out as unconfirmed; settings: pH 7.4; mouse liver microsomes, NADPH-generating system, 37 °C
Protocol: The reaction was initiated by adding cofactors and quenched at designated time points (0, 5, 10, 15, 30, 45, 60 min) by the addition of an equal volume of ice-cold acetonitrile (ACN). […].
The basic incubation mixture consisted of 5 mM substrate, 1 mg/mL microsomal protein, 3 mM MgCl2, 1 mM NADP, 5 mM glucose-6-phosphate, 1 IU/mL glucose-6-phosphate dehydrogenase, 100 mM Tris HCl buffer (pH 7.4) in a final volume of 1 mL. The reaction was initiated by adding cofactors and quenched at designated time points (0, 5, 10, 15, 30, 45, 60 min) by addition of an equal volume of ice-cold ACN. The mixture was centrifuged at 3000 rpm for 10 min, and the supernatant was analyzed by UPLC/MS/MS.

[17] = target: T2, σ-2 (Rattus norvegicus, UniProt Q5U3Y7); test: σ receptor assay: σ-2 binding with [3H]DTG plus (+)-pentazocine; settings: for Ki: rat brain homogenates
T2 construct: from tissue; host or cells: rat brain homogenate (membrane protein)
T2 sequence (Q5U3Y7 1-176): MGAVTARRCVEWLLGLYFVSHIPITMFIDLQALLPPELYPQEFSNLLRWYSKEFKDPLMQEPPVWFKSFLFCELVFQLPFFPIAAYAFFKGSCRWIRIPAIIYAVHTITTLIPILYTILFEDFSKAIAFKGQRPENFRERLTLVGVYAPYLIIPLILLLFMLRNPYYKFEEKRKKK
Protocol: (§3) Compounds were evaluated for σ -1 and σ -2 binding in rat brain homogenates. […] The assays were terminated with ice-cold 10 mM Tris-HCl, pH 8.0, followed by two washes through glass fiber filters that were pre-soaked for at least 30 min in 0.5% polyethyleneimine.

[18] = target: σ-1 (Rattus norvegicus, UniProt Q9R0C9); test: σ receptor assay: σ-1 binding with [3H](+)-pentazocine; settings: rat brain homogenates; CM table
σ-1, sequence (Q9R0C9 whole entry): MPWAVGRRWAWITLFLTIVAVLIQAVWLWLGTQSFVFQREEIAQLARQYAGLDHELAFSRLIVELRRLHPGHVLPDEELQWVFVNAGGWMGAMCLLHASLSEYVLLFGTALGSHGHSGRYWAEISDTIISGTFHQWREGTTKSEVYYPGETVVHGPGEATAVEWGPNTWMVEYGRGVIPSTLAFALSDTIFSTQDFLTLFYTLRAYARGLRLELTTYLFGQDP
Protocol: as §3

[19] = system: Male, Swiss Webster mice; test: Development of cocaine-induced sensitization; type: in vivo; settings: pretreatment Days 1-5, cocaine 10 mg/kg i.p.
Protocol: as §2, with “of” for “surrounding”, “chamber on each of the five days. A 10 day drug-free period followed. On Day 15, all of the mice were pre-administered (i.p.) saline followed by cocaine (10mg/kg, i.p.), and locomotor activity quantified for the next 30 min.” for “chambers.”

[20] = target: σ-1 receptors (Mus musculus, UniProt O55242); test: Small-animal PET imaging in mice (brain); type: in vivo
σ-1 receptors (Mus musculus, UniProt O55242), sequence (O55242 whole entry): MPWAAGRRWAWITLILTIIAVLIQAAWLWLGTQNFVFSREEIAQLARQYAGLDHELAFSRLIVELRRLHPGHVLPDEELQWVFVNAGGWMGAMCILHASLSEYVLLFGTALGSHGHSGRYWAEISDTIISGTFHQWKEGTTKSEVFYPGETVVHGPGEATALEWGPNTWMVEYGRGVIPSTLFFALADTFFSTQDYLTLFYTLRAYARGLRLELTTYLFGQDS

[21] = analytical reverse-phase HPLC
[22] = system: σ-1 receptor; settings: cited from earlier work

CC(C)=CCN1CC[C@]2(C)c3cc(O)ccc3C[C@H]1[C@H]2C [(+)-[^3H] pentazocine, reference compound]
uptake in cells transfected with σ-1 receptor cDNA versus control CHO cells [1]: 3.6 fold

CC(CCCn1c(=O)sc2cc(F)ccc21)N1CCN(C2CCCCC2)CC1 (stereo not shown) [AZ_66]
loss of substrate in the absence of cofactor ([2]; control incubation without NADPH): no loss of substrate
metabolised at 1 h, 1 µM ([2]; rat, microsomes, pH 7.4, by 60 min, read-out: added substrate metabolized by microsomes): ~25%

S=c1sc2ccccc2n1CCCCN1CCN(C2CCCCC2)CC1 [CM156]
Ki [3]: 1175 ± 10 nM
Ki [4]: 1400 ± 152 nM
Ki [5]: > 10000 nM
Ki [6]: > 10000 nM
Ki [7]: 1041 ± 9 nM
Ki [8]: 1330 ± 159 nM
attenuation of cocaine-induced convulsions [9]: significant attenuation
attenuation of cocaine-induced locomotor activity [10]: significant attenuation
expression of cocaine-induced sensitization (behavioral sensitization) [11]: significant attenuation
locomotor stimulant effects of methamphetamine [12]: attenuated
neurotoxic effects resulting from methamphetamine exposures (dopamine depletions) [13]: attenuated

Cl.O=c1sc2cc(CCCF)ccc2n1CCN1CCCCCC1 [CM304, 3-(2-(azepan-1-yl)ethyl)-6-(3-fluoropropyl)benzo[d]thiazol-2(3H)-one hydrochloride]
attenuation of cocaine-induced convulsions [9]: significantly attenuated
experimental pKa [14]: 10.4
Ki [15]: 0.0025 nM
half-life [16]: 4.2 min

O=c1oc2ccccc2n1CCCCN1CCN(C2CCCCC2)CC1 [CM 121]
preference (selectivity) for the σ-2 subtype ([17]; σ-2 over σ-1): six fold

O=c1sc2ccccc2n1CCCCN1CCN(C2CCCCC2)CC1 [CM 145]
Ki ([17]; CM table, read-out: Ki (nM) […]2): 0.39 ± 0.06 nM

c1ccc2c(c1)ccn2CCCCN1CCN(C2CCCCC2)CC1 [CM 341]
Ki ([17]; CM table, read-out: Ki (nM) […]2): 1.9 ± 0.16 nM

Fc1ccc(-c2cn(CCCCN3CCN(C4CCCCC4)CC3)c3ccccc23)cc1 [CM 349]
Ki [18]: 90.9 ± 12.3 nM
Ki ([17]; CM table, read-out: Ki (nM) […]2): 22.6 ± 1.13 nM

Fc1ccc(-c2cn(CCCCN3CCN(c4ccc(F)cc4)CC3)c3ccccc23)cc1 [CM 350]
Ki [18]: 1200 ± 73.9 nM

Cn1c(=O)n(CCCCN2CCN(C3CCCCC3)CC2)c2ccccc21 [CM 396]
Ki ([17]; CM table, read-out: Ki (nM) […]2): 2.57 ± 0.47 nM

CC(=O)c1ccc2c(c1)oc(=O)n2CCCCN1CCN(c2ccc(F)cc2)CC1 [SN-79]
Ki ([17]; SN table, read-out: Ki (nM) σ2): 6.06 nM
attenuation of cocaine-induced convulsions [9]: significant attenuation
attenuation of cocaine-induced locomotor activity [10]: significant attenuation
development of cocaine-induced sensitization [19]: attenuates the development of cocaine-induced sensitization
expression of cocaine-induced sensitization (behavioral sensitization) [11]: attenuates the expression of cocaine-induced sensitization

O=c1sc2cc(CCC[18F])ccc2n1CCN1CCCCCC1 [[^18F]FTC-146, 6-(3-fluoropropyl) -3-(2-(azapan-1-yl)ethyl) benzo [d] thiazol-2 (3H) -one]
reduction of [18F]FTC-146 binding in the brain ([20]; at 60 min, pre-treatment with CM304 1 mg/kg 10 minutes prior to radioligand): 83%
tissue uptake ([20]; mouse, brain, iv, read-out: maximum uptake in brain): ~17 %ID/g
stability of formulated version in saline/ethanol (9:1) [21]: at least 5.5 hours
uptake in cells transfected with σ-1 receptor cDNA versus control CHO cells [1]: 4 fold

[17F]CCC1OC2(CCN(Cc3ccccc3)CC2)c2ccccc21 (stereo not shown) [[^18F]fluspidine]
brain level relative to its maximum ([22]; at 60 minutes post injection): 81%
reduction in brain uptake ([22]; biodistribution in mice, over 2 hours): 40%
time of maximum uptake in the brain ([22]; post injection): 30 min
